# Data published in US12570643B2, “3-aryloxy-3-five-membered heteroaryl propylamine compound, and crystal form and use thereof” (Shanghai Leado Pharmatech Co. Ltd., priority 2019, dated 2026).
# Counter-ions that a name gives are not always drawn.
# Key:
# [1] = Hygroscopicity by dynamic moisture absorption (DVS); format: physicochemical; details: 25° C./80RH
# Procedure: Hygroscopicity was tested by dynamic moisture absorption (DVS) instrument. […] (Refer to the 2015 edition of the Chinese Pharmacopoeia (Guiding Principles for Drug Hygroscopicity Test)). • (2) Stability study of the crystal form A of the hydrochloride of the compound of formula I-1: […]
# [2] = Stability study of crystal form A (HPLC purity, XRPD crystal form); format: physicochemical; details: initial purity 100
# Procedure: About 10 mg of the crystal form A of the hydrochloride of the compound of formula I-1 was weighed and added into an HPLC vial, the bottle was sealed with a parafilm, 10 small holes were pierced in the film, and the vial was placed at 25° C./60% RH or 40° C./75% RH environment for 4 weeks, sampled in the first and fourth weeks respectively. Purity (using HPLC analysis) and crystal form (using X-ray powder diffraction analysis) of the samples were investigated.
# HepG2 cells = assay: Hepatocyte toxicity (CCK-8 cytotoxicity test); format: cell-based; details: Homo sapiens, 72 hours, read-out: hepatotoxicity (IC50)
# Procedure: (§1) HepG-2 and SH-SY5Y cells were prepared and placed in 10 cm dish and incubated at 37° C., 5% CO2 in a cell incubator; the cells were digested with trypsinize, resuspended and then counted. Based on a system of 100 μl/well, 8000 cells were transferred to a 96-well plate. The cells were incubated in a 37° C., 5% CO2 cell incubator for 24 hours; a gradient concentration system of compound I-1 (prepared in Example 2) was prepared, 2 times diluted, the system was 100 μl/well. The supernatant in the 96-well plate cell culture system on the first day was removed, and a fresh prepared drug concentration system was added to the corresponding culture plate wells culturing cells (set up duplicate wells). […] After completion of the culture, the supernatant was removed from the cell culture system of the 96-well plate, 100 μl of detection solution (medium containing 10% CCK-8) was add to each well, and incubated in a cell incubator at 37° C. and 5% CO2 for 1 hour, then taken it out and measured the absorbance at 450 nm with a microplate reader. Data were processed, cytotoxicity was calculated, and IC50 was calculated by GraphPad Prism. […]
# (§2) A (dosing): absorbance of the well having cells, CCK-8 solution and drug solution
# (§3) A (blank): absorbance of the well having medium and CCK-8 solution, without cells.
# (§4) A (0 dosing): absorbance of the well having cells and CCK-8 solution, without drug solution […]
# [3] = Neurocytotoxicity (CCK-8 cytotoxicity test); format: cell-based; details: human, SH-SY5Y cells
# Procedure: as §1, §2, §3, §4
# [4] = tested on: formalin pain model in mice; assay: Formalin pain model in mice; format: in vivo, C57BL/6 mice; details: for licking time (s) in phase II (10-60 min): hydrochloride used, mice, blank Vehicle 349.55 ± 43.09
# Text: 150 C57BL/6 mice (male, 9 weeks) were randomly divided into 15 groups with 10 mice for each group, and were used for the analgesic activity test of 3 compounds in the formalin pain model in mice: the compound I-1 group (compound I-1 prepared in Example 2, its hydrochloride was used in the experiment), the S-duloxetine group (its hydrochloride was used in the experiment) and the compound C1 group (compound C1 prepared in Comparative Example 1, its hydrochloride was used in the experiment), respectively. Before the start of the experiment, the mice were allowed to adapt to the experimental environment for 72 hours, during which there was no need to fast for food or water. The tested drugs were administrated by intraperitoneal injection, and the doses were as follows: • The compound I-1 group: blank Vehicle (blank normal saline control), 0.1 mg/kg, 0.5 mg/kg, 1 mg/kg, 5 mg/kg and 10 mg/kg; • The S-duloxetine group: blank Vehicle (blank normal saline control), 1 mg/kg, 5 mg/kg, 10 mg/kg and 20 mg/kg; • The Compound C1 group: blank Vehicle (blank normal saline control), 0.1 mg/kg, 0.5 mg/kg, 1 mg/kg, 5 mg/kg and 10 mg/kg.
# After the administration, the mice were placed in a transparent, ventilated plexiglass cylinder, and 1 hour later, 20 μl of 4% formalin solution was injected into the left hind foot plantar of each group of mice with a micro-injector, and foot pain response in mice were recorded in real time with a miniature camera. The length of time of licking the left foot was used as an indicator of pain response, the licking time were observed and recorded during two periods of 0-10 min (phase I) and 10-60 min (phase II) respectively, for statistical analysis, and the half effective dose (ED50) of the 3 compounds were calculated: ED50 refers to the drug dose that reduces the licking time by half compared with the blank control group. The smaller the ED50 value is, the lower the effective analgesic dose of the compound is and the better its analgesic effect is.
# [5] = tested on: hot plate induced pain model in rat; assay: Hot plate induced pain model in rat; format: in vivo, Sprague-Dawley rats; details: 30 mg/kg intraperitoneal, hydrochloride used
# Procedure: Male, mature and unmated healthy Sprague-Dawley rats were selected, and the temperature of the cold/hot plate (product model: PE34, US IITC) was adjusted to a constant temperature of 53±0.1° C., and rats with painful response such as foot licking, foot shaking or slight jumping within 5-10 s were screened (abandoned those who evaded and jumped). […] The tested compound was freshly formulated on the day of administration. A 0.9% NaCl normal saline solution was prepared as a vehicle, an appropriate amount of the test compound was added to the required volume of normal saline, and the mixture was fully suspended to prepare the drug at a concentration of 1 mg/ml. […] The latency of thermal pain was measured at 0.5 h, 1 h and 2 h after drug administration. To avoid scalding the animals on the hot plate, the maximum latency was set to 30 s. The analgesic effect of each compound was evaluated using the maximum possible effect (MPE), i.e. MPE %=[(Post drug latency-baseline latency)/(30−baseline latency)]×100. Statistics of MPE % at different time points.
# [6] = tested on: acetic acid writhing pain model in mice; assay: Acetic acid writhing pain model in mice; format: in vivo, ICR mice; details: acetic acid 1 hour after administration, normal saline group 49 times
# Procedure: ICR mice, male, 22-25 g, were fasted for food 2 h before administration, but can have water. All ICR mice were weighed and randomly grouped with the number of animals>10 per group. […] The mice were administered via intragastric administration according to the weight of mice. 1.5% acetic acid solution (0.1 ml/10 g) was intraperitoneally injected at 1 hour after administration, and the number of times of visceral pain in each group within 30 minutes was observed, the mice were counted once when the abdomen was concave, the trunk and hind legs were extended and the hips were elevated, and the number of times of these phenomena occurred within 30 min was finally counted.
# SNL model in rat = assay: SNL model in rat, mechanical hyperalgesia test; format: in vivo, SD rats; details: 10 mg/kg intragastric, 1 hour after administration, hydrochloride used; control group 3.967 ± 0.775
# Procedure: SD rats were taken for surgery, male, SPF grade, mass 150 g-180 g. The surgical procedure was performed aseptically. The animals were anesthetized with sodium pentobarbital (50 mg/kg, intraperitoneal injection). The surgical area of the waist of animals was shaved, and the skin was disinfected three times with iodophor and 70% ethanol. Start the operation after the skin was dry. A longitudinal incision was made in the posterior part of the sacral bone of the animal's waist with a scalpel to expose the left paravertebral muscles, and the muscle tissue was separated with a distractor to expose the vertebra. The left spinal nerves L5 and L6 were separated, ligated with 6-0 silk thread, and the wounds were sutured. After the surgery, the animals were placed on an electric blanket and injected subcutaneously with 5 mL normal saline to prevent dehydration. When the animal was completely awake (free to move), put the animal back into the cage.
# After the surgery, the animals were adapted in the experimental environment for 15 minutes/day for 3 days.
# After administration, mechanical hyperalgesia test was performed. The rats were placed individually in a plexiglas box with a grid at the bottom of the box to ensure that the feet of the rats can be tested. Rats would adapt for 15 minutes before the test. […] The rapid paw withdrawal of the animal during the test was recorded as a pain response. The paw withdrawal of the animal when the test fiber left the animal's skin was also recorded as a pain response. If the animal moved or walked, it will not be recorded as a pain response, the test should be repeated. […]
# Mechanical hyperalgesia was expressed as the paw withdrawal threshold (PWT) in the behavioral test of rats, which was calculated according to the following equation: 50% response threshold (g)=(10(^Xf+kδ))/10,000 • Xf=the final test fiber value used in the test • K=table value • δ=Average difference
# Data were collected using Excel software and analyzed using Prism 6.01 (Graph pad software, Inc.) software.
Structure (SMILES),"weight change (hygroscopicity, DVS) [1]","Purity (area %) ([2]; 25° C./60% RH, 1 week)","Purity (area %) ([2]; 25° C./60% RH, 4 weeks)","Purity (area %) ([2]; 40° C./75% RH, 1 week)","Purity (area %) ([2]; 40° C./75% RH, 4 weeks)",IC50 (HepG2 cells) [µM],IC50 at 72 h [3] [µM],licking time (s) in phase II (10-60 min) ([4]; 1 mg/kg intraperitoneal) [s],licking time (s) in phase II (10-60 min) ([4]; 5 mg/kg intraperitoneal) [s],licking time (s) in phase II (10-60 min) ([4]; 10 mg/kg intraperitoneal) [s],licking time (s) in phase II (10-60 min) ([4]; 20 mg/kg intraperitoneal) [s],"ED50 ([4]; Mus musculus, ip, intraperitoneal, phase II (10-60 min), dose that halves licking time vs blank control, read-out: analgesic potency ED50 in phase II pain) [mg/kg]",MPE % ([5]; 0.5 h) [%],MPE % ([5]; 1 h) [%],MPE % ([5]; 2 h) [%],number of visceral pains (writhing reactions) within 30 min ([6]; 10 mg/kg intragastric) [times],number of visceral pains (writhing reactions) within 30 min ([6]; 20 mg/kg intragastric) [times],PWT (SNL model in rat) [g]
CNCC[C@@H](Oc1cccc2ccoc12)c1cccs1 [Crystal form A of the hydrochloride],less than 0.2%,100,100,100,100,,,,,,,,,,,,,
CNCC[C@H](Oc1cccc2ccccc12)c1cccs1 [S-duloxetine],,,,,,33.3,28.6,259.97 ± 64.44,230.49 ± 41.31,162.83 ± 36.27,72.27 ± 17.29,8,5.75 ± 5.74,7.44 ± 5.12,13.53 ± 4.99,27,21,6.519 ± 2.226
